Laboratory results from patent US11766430B2, “Methods of using a phenoxypropylamine compound to treat pain” (Minerva Neurosciences, Inc., priority 2018, dated 2023).
Values joined by “and” are separate entries in the source; they are usually repeats but may differ in a detail not shown here. Identical values can stand only once.

Key:
[1] = test system: carrageenan-induced mechanical hyperalgesia in rats; assay: Carrageenan-induced mechanical hyperalgesia, paw pressure test, MIN-117 1-10 mg/kg (Example 4); assay type: in vivo, male Sprague-Dawley rats; conditions: Carrageenan 2%; for Nociceptive threshold, control paw (mean ± s.e.m.): T0 (3 h after carrageenan, before dosing); for paw withdrawal threshold, control paw, Mean: n = 10
Method: In this model, inflammation is induced by intraplantar injection of carrageenan (2%) into the right hindpaw of the rat. Three hours later, reaction thresholds are measured using the paw pressure test. Pressure is gradually applied to both hind paws (inflamed and control) of the rat, and reaction thresholds are determined as the pressure (g) required to elicit paw withdrawal or vocalization. Morphine (3 mg/kg, s.c.), used as positive control.
The experiments in this study used fifty (50) male Sprague-Dawley rats (SPF status, Janvier, France), each weighing 183-244 g during the experimental phase. The rats were housed in a temperature (20-24° C.) and relative humidity (45%-65%) controlled room and acclimated to an artificial day/night cycle of 12 hours light (6.30 a.m. to 6.30 p.m.)/12 hours darkness. Rats had free access to sterilized tap water and were fed ad libitum with pelleted complete diet (reference A04, S.A.F.E.). Animals were housed 4 per cage (cages Type E) and were acclimated for a period of at least 5 days before any testing. Each rat was identified by tail markings. Based on the SPF status of the animal facilities, there is no reason to expect that contaminants were present in the food, water or bedding, at levels capable of interfering with the results of the tests.
Static mechanical hyperalgesia was assessed using the Paw Pressure test or Randall & Selitto test (Randall, L. O. and Selitto, J. J., A method for measurement of analgesic activity on inflamed tissue, Arch Int Pharmacodyn, 1957(111): 409-419). This test requires the application of an increasing pressure on the hind paws between a flat surface and a blunt pointer. This test is usually used with animals with one hind paw inflamed by an injection or injured by ligation, and one normal hind paw, to evaluate drugs for analgesic action. The apparatus exerts a steadily increasing force and reaction threshold is determined as the pressure (g) required to elicit paw withdrawal and/or vocalization. In the experiment, animals were gently handled by the experimenter and static mechanical hyperalgesia was assessed. Each reaction threshold measurement was done for both hind paws.
Five (5) experimental groups of 10 rats each were used. Each group was first injected with 100 μL of a 2% carrageenan suspension was injected into the plantar aspect of the right hindpaw. Three hours after carrageenan injection, nociceptive reaction thresholds (vocalization or paw withdrawal) were measured in order to select animals meeting the inclusion criteria: 20 g<paw withdrawal threshold<240 g (baseline). The 5 groups were then administered the following: • Group 1: vehicle (0.5% HPMC), i.p., solution (negative control); • Group 2: MIN-117 (1 mg/kg, i.p.) in 0.5% HPMC, suspension; • Group 3: MIN-117 (3 mg/kg, i.p.) in 0.5% HPMC, suspension; • Group 4: MIN-117 (10 mg/kg, i.p.) in 0.5% HPMC, suspension; and • Group 5: morphine (3 mg/kg, s.c.) in 0.9% NaCl, solution (positive control).
Thirty minutes after morphine injection, the antihyperalgesic effect of morphine was evaluated using the paw pressure test. For vehicle and MIN-117 administration, the antihyperalgesic effect was evaluated after 120 min. using the paw pressure test.
Vehicle and MIN-117 were intraperitoneally administered at 10 mL/kg. Morphine was subcutaneously administered at 5 mL/kg. Dosing and testing were performed in a random order by a blinded experimenter except for the morphine-treated group. Doses were expressed in terms of free active substance.
Results were expressed as: • The paw withdrawal threshold (mean±s.e.m.) in grams of contact pressure for each group, calculated from individual paw withdrawal thresholds • The percentage of variation of the paw withdrawal threshold calculated from the mean value of the vehicle-treated group • The percentage of activity of activity of the compound on carrageenan-induced mechanical hyperalgesia, calculated as follows: […]

[2] = Body weight, reversal study (Example 6); assay type: in vivo, Male Sprague Dawley rats; conditions: 1, 3 and 10 mg/kg i.p. once daily for 2 weeks; repeated measures ANOVA
Method: Body weight (BW) was measured daily during treatment and twice a week after cessation of dosing.
Data was analyzed by analysis of variance (ANOVA) followed by post-hoc comparisons where appropriate. An effect will be considered significant if p<0.05. Data was represented as the mean and standard error to the mean (s.e.m). Statistical outliers that fell above or below 2 standard deviations of the mean were identified but not removed from the final analysis.

[3] = 1 mg/kg i.p., T0 (before dosing)
[4] = 3 mg/kg i.p., T0 (before dosing)
[5] = 10 mg/kg i.p., T0 (before dosing)
[6] = MIN-117 1 mg/kg i.p. group, Baseline (before dosing)
[7] = MIN-117 1 mg/kg i.p., 120 min after treatment, hydrochloride, 1 mg/kg
[8] = MIN-117 3 mg/kg i.p. group, Baseline (before dosing)
[9] = MIN-117 3 mg/kg i.p., 120 min after treatment, hydrochloride, 3 mg/kg
[10] = MIN-117 10 mg/kg i.p. group, Baseline (before dosing)
[11] = MIN-117 10 mg/kg i.p., 120 min after treatment, hydrochloride, 10 mg/kg

Cc1nnc(-c2cc3c(OC[C@@H](O)CN4CCC(c5ccc(Cl)c(Cl)c5)CC4)cccc3o2)o1.Cl [MIN-117, (2S)-1-(4-(3,4-dichlorophenyl)piperidin-1-yl)-3-((2-(5-methyl-1,3,4-oxadiazol-2-yl)benzofuran-4-yl)oxy)propan-2-ol hydrochloride]
Effect on nociceptive threshold vs vehicle-treated group (in words) ([1]; 1 mg/kg i.p., 120 min. after treatment): did not induce any significant increase | Nociceptive threshold, control paw (mean ± s.e.m.) ([1]; 1 mg/kg i.p.): 402 ± 19.9 g | % variation vs control paw, injured paw [1, 3]: −50% | % variation vs vehicle-treated group, injured paw [1, 3]: 1% | Nociceptive threshold, injured paw (mean ± s.e.m.) [1, 3]: 202 ± 8.7 g | % variation vs control paw, injured paw ([1]; 1 mg/kg i.p., T0 + 120 min): −39% | % variation vs pre-drug threshold, injured paw ([1]; 1 mg/kg i.p., T0 + 120 min): 14% | % variation vs vehicle-treated group, injured paw ([1]; 1 mg/kg i.p., T0 + 120 min): 13% | Nociceptive threshold, injured paw (mean ± s.e.m.) ([1]; 1 mg/kg i.p., T0 + 120 min): 230 ± 9.5 g | Effect on nociceptive threshold vs vehicle-treated group (in words) ([1]; 3 mg/kg i.p., 120 min. later): significant increase | Nociceptive threshold, control paw (mean ± s.e.m.) ([1]; 3 mg/kg i.p.): 392 ± 18.4 g | % variation vs control paw, injured paw [1, 4]: −47% | % variation vs vehicle-treated group, injured paw [1, 4]: 4% | Nociceptive threshold, injured paw (mean ± s.e.m.) [1, 4]: 208 ± 7.4 g | % variation vs control paw, injured paw ([1]; 3 mg/kg i.p., T0 + 120 min): −23% | % variation vs pre-drug threshold, injured paw ([1]; 3 mg/kg i.p., T0 + 120 min): 42% | % variation vs vehicle-treated group, injured paw ([1]; 3 mg/kg i.p., T0 + 120 min): 45% | Nociceptive threshold, injured paw (mean ± s.e.m.) ([1]; 3 mg/kg i.p., T0 + 120 min, hydrochloride, 3 mg/kg): 296 ± 20.8 g | Effect on nociceptive threshold vs vehicle-treated group (in words) ([1]; 10 mg/kg i.p., 120 min. later): significant increase | Nociceptive threshold, control paw (mean ± s.e.m.) ([1]; 10 mg/kg i.p.): 384 ± 10.2 g | % variation vs control paw, injured paw [1, 5]: −47% | % variation vs vehicle-treated group, injured paw [1, 5]: 2% | Nociceptive threshold, injured paw (mean ± s.e.m.) [1, 5]: 204 ± 6.5 g | % variation vs control paw, injured paw ([1]; 10 mg/kg i.p., T0 + 120 min): −27% | % variation vs pre-drug threshold, injured paw ([1]; 10 mg/kg i.p., T0 + 120 min): 53% | % variation vs vehicle-treated group, injured paw ([1]; 10 mg/kg i.p., T0 + 120 min): 53% | Nociceptive threshold, injured paw (mean ± s.e.m.) ([1]; 10 mg/kg i.p., T0 + 120 min, hydrochloride, 10 mg/kg): 312 ± 22.7 g | % variation vs control paw, injured paw [1, 6]: −50% | % variation vs vehicle treated group, injured paw [1, 6]: 1% | paw withdrawal threshold, control paw, Mean ([1]; MIN-117 1 mg/kg i.p. group, Baseline (before dosing, 3 h after carrageenan)): 402 g | % activity on carrageenan-induced mechanical hyperalgesia, injured paw ([1]; MIN-117 1 mg/kg i.p., 120 min): 15% | % variation vs control paw, injured paw ([1]; MIN-117 1 mg/kg i.p., 120 min): −39% | % variation vs pre-drug threshold, injured paw ([1]; MIN-117 1 mg/kg i.p., 120 min): 14% | % variation vs vehicle treated group, injured paw ([1]; MIN-117 1 mg/kg i.p., 120 min): 13% | paw withdrawal threshold, control paw, individual rats [1, 7]: 400 g and 440 g and 340 g and 480 g and 360 g (4×) and 380 g and 320 g | paw withdrawal threshold, injured paw, individual rats [1, 7]: 260 g (4×) and 220 g (2×) and 240 g and 200 g (2×) and 180 g | paw withdrawal threshold, control paw, Mean ([1]; MIN-117 1 mg/kg i.p., 120 min after treatment): 380 g | % variation vs control paw, injured paw [1, 8]: −47% | % variation vs vehicle treated group, injured paw [1, 8]: 4% | paw withdrawal threshold, control paw, Mean ([1]; MIN-117 3 mg/kg i.p. group, Baseline (before dosing, 3 h after carrageenan)): 392 g | % activity on carrageenan-induced mechanical hyperalgesia, injured paw ([1]; MIN-117 3 mg/kg i.p., 120 min): 55% | % variation vs control paw, injured paw ([1]; MIN-117 3 mg/kg i.p., 120 min): −23% | % variation vs pre-drug threshold, injured paw ([1]; MIN-117 3 mg/kg i.p., 120 min): 42% | % variation vs vehicle treated group, injured paw ([1]; MIN-117 3 mg/kg i.p., 120 min): 45% | paw withdrawal threshold, control paw, individual rats [1, 9]: 380 g and 360 g (5×) and 440 g and 500 g and 320 g and 420 g | paw withdrawal threshold, injured paw, individual rats [1, 9]: 360 g and 220 g and 420 g and 280 g (3×) and 340 g and 320 g and 260 g and 200 g | paw withdrawal threshold, control paw, Mean ([1]; MIN-117 3 mg/kg i.p., 120 min after treatment): 368 g | % variation vs control paw, injured paw [1, 10]: −47% | % variation vs vehicle treated group, injured paw [1, 10]: 2% | paw withdrawal threshold, control paw, Mean ([1]; MIN-117 10 mg/kg i.p. group, Baseline (before dosing, 3 h after carrageenan)): 384 g | % activity on carrageenan-induced mechanical hyperalgesia, injured paw ([1]; MIN-117 10 mg/kg i.p., 120 min): 64% | % variation vs control paw, injured paw ([1]; MIN-117 10 mg/kg i.p., 120 min): −27% | % variation vs pre-drug threshold, injured paw ([1]; MIN-117 10 mg/kg i.p., 120 min): 53% | % variation vs vehicle treated group, injured paw ([1]; MIN-117 10 mg/kg i.p., 120 min): 53% | paw withdrawal threshold, control paw, individual rats [1, 11]: 440 g (3×) and 480 g and 520 g and 400 g and 340 g and 320 g and 360 g and 540 g | paw withdrawal threshold, injured paw, individual rats [1, 11]: 320 g (2×) and 280 g (2×) and 340 g and 360 g and 480 g and 260 g and 240 g (2×) | paw withdrawal threshold, control paw, Mean ([1]; MIN-117 10 mg/kg i.p., 120 min after treatment): 428 g | Body weight during treatment compared to vehicle (in words) [2]: no significant treatment effect
